Results on eight compounds are retold here after ChEMBL document CHEMBL5465560, “Selectivity Literature for EUbOPEN Chemogenomic Library” (2024).

The target of assay [1] is Dual specificity protein kinase CLK3 (Homo sapiens, UniProt P49761). Kind of assay: Selectivity interaction (ProQinase) EUB0000171b CLK3.
For assay [2], the system named is Epidermal growth factor receptor (Homo sapiens), P00533 [UNDEFINED MUTATION]. To be noted: at 10 µM.
In assay [3] the target is T1, Serine/threonine-protein kinase Chk1 (Homo sapiens) (UniProt O14757).
T1 sequence (whole entry): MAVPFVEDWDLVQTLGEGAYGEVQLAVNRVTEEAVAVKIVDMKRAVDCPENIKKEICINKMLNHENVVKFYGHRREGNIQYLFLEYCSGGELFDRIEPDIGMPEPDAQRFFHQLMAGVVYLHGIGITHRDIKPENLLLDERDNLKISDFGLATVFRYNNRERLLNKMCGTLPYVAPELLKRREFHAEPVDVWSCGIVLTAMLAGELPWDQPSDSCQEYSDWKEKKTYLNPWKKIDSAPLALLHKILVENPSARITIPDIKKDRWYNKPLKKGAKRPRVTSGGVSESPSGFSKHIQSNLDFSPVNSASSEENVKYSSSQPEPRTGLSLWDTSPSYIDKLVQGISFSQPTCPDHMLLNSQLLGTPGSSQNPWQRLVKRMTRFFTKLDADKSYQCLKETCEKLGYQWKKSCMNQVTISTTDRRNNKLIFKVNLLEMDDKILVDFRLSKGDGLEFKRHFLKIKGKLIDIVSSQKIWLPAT
The settings on record: at 10 µM.

Assay [4] addresses T2, Serine/threonine-protein kinase D3 (Homo sapiens) (UniProt O94806).
T2 sequence (whole entry): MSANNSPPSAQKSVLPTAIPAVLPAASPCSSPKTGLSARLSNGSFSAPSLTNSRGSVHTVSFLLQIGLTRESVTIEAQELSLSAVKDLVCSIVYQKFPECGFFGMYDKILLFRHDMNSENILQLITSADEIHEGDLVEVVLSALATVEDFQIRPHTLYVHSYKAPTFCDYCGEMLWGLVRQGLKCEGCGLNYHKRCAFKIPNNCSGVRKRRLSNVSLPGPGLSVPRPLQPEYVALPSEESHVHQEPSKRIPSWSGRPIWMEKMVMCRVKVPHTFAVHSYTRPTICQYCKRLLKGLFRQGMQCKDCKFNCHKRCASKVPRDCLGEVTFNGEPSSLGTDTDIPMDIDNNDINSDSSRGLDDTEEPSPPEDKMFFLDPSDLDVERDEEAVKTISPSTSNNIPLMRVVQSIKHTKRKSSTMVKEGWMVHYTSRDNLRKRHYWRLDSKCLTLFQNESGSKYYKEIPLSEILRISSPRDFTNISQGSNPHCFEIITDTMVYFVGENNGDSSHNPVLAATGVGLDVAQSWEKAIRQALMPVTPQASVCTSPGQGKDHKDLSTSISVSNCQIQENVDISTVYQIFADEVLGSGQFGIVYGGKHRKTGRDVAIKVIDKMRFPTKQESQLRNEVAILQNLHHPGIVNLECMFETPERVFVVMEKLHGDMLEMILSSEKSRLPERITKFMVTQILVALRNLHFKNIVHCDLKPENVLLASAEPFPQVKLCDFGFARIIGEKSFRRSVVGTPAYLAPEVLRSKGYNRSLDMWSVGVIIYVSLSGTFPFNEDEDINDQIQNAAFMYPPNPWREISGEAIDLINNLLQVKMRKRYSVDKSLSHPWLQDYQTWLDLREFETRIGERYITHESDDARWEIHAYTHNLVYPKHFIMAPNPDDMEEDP
Kind of assay: Selectivity interaction (KinomeScan (DiscoverX)) EUB0000092b PRKD3. The settings on record: at 10 µM.

The target of assay [5] is Tyrosine-protein kinase Fes/Fps (Homo sapiens) (UniProt P07332). Kind of assay: Selectivity interaction (KinomeScan (DiscoverX)) EUB0000695a FES. To be noted: at 100 nM.
Assay [6] concerns the target T3, Serine/threonine-protein kinase Nek9 (Homo sapiens) (UniProt Q8TD19).
T3 sequence (whole entry): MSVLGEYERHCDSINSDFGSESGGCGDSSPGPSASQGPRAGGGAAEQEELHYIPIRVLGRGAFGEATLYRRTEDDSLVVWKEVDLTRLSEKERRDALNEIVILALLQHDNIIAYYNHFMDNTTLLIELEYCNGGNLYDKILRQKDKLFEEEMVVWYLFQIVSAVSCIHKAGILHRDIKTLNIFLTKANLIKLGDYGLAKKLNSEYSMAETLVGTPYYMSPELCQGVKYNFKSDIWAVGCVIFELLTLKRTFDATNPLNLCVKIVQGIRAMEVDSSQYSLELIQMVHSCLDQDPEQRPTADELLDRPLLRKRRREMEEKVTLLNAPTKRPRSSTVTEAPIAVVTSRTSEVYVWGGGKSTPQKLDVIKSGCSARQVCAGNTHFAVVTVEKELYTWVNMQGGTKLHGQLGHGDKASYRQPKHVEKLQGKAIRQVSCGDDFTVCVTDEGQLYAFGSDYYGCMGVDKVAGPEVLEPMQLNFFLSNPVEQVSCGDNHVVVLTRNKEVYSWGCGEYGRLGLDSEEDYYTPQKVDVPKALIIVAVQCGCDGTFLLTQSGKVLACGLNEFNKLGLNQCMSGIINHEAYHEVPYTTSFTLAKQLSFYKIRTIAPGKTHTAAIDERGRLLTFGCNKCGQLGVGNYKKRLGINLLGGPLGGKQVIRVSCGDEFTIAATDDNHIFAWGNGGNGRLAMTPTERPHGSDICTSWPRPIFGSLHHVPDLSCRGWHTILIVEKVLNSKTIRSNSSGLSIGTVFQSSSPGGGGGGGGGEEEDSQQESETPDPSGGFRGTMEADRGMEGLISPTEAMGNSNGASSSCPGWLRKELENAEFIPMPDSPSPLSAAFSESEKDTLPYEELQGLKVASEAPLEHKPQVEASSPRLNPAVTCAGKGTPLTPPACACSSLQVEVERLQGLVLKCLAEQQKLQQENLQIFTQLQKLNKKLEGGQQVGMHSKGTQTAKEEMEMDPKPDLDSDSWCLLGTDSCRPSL
Kind of assay: Selectivity interaction (ActivX KiNativ screen (kinase selectivity in THP-1 cell lysates)) EUB0000639a NEK9. It is filed as subcellular. The settings on record: lysate, at 0.2 µM.

Assay [7] relates to ALK tyrosine kinase receptor (Homo sapiens), Q9UM73 [L1196M]. Kind of assay: (§1) Selectivity interaction (KinomeScan (DiscoverX)) EUB0000229b ALK. To be noted: at 1 µM.
The subject of assay [8] is ALK tyrosine kinase receptor (Homo sapiens), Q9UM73 [C1156Y]. The assay is described as §1. To be noted: at 1 µM.
Assay [9] has as its target Epidermal growth factor receptor (Homo sapiens, UniProt P00533). Kind of assay: Selectivity interaction (Kinase panel (literature)) EUB0001199aCl EGFR. The settings on record: at 1 µM.

Chain of Dual specificity protein kinase CLK3 (P49761 whole entry, looked up): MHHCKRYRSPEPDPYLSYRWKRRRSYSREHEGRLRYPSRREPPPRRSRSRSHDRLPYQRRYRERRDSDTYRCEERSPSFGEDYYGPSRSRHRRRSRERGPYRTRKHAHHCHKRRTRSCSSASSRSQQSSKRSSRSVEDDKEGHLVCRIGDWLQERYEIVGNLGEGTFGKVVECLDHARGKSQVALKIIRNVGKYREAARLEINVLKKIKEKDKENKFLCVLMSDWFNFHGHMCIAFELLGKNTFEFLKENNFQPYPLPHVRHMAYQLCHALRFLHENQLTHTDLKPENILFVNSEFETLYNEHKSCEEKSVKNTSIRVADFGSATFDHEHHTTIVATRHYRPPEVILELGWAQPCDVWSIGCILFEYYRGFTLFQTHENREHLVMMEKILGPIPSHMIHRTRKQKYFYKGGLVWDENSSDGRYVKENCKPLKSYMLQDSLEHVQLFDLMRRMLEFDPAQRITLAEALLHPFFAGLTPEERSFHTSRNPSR
Chain of Tyrosine-protein kinase Fes/Fps (Homo sapiens) (P07332 whole entry): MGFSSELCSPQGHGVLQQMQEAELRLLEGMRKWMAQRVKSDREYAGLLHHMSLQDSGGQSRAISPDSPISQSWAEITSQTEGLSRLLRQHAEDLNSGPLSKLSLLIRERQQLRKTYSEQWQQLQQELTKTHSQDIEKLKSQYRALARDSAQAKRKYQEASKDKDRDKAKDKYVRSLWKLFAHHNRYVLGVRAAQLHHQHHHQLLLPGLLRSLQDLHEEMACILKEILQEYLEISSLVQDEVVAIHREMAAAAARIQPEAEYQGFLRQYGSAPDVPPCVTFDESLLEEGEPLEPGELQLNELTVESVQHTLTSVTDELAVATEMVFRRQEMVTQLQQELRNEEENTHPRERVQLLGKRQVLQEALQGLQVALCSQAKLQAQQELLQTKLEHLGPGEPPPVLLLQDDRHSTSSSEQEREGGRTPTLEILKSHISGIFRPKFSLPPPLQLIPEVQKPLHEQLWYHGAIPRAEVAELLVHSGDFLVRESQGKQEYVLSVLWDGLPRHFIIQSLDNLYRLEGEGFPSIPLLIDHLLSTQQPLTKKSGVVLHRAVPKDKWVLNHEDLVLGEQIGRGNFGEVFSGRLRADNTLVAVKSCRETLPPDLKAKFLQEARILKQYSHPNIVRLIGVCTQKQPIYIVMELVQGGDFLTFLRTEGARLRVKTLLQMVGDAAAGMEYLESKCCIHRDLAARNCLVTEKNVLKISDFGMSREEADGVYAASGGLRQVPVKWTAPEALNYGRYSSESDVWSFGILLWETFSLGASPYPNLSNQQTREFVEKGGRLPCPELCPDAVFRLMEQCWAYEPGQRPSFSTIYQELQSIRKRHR
Chain of Epidermal growth factor receptor (P00533 whole entry): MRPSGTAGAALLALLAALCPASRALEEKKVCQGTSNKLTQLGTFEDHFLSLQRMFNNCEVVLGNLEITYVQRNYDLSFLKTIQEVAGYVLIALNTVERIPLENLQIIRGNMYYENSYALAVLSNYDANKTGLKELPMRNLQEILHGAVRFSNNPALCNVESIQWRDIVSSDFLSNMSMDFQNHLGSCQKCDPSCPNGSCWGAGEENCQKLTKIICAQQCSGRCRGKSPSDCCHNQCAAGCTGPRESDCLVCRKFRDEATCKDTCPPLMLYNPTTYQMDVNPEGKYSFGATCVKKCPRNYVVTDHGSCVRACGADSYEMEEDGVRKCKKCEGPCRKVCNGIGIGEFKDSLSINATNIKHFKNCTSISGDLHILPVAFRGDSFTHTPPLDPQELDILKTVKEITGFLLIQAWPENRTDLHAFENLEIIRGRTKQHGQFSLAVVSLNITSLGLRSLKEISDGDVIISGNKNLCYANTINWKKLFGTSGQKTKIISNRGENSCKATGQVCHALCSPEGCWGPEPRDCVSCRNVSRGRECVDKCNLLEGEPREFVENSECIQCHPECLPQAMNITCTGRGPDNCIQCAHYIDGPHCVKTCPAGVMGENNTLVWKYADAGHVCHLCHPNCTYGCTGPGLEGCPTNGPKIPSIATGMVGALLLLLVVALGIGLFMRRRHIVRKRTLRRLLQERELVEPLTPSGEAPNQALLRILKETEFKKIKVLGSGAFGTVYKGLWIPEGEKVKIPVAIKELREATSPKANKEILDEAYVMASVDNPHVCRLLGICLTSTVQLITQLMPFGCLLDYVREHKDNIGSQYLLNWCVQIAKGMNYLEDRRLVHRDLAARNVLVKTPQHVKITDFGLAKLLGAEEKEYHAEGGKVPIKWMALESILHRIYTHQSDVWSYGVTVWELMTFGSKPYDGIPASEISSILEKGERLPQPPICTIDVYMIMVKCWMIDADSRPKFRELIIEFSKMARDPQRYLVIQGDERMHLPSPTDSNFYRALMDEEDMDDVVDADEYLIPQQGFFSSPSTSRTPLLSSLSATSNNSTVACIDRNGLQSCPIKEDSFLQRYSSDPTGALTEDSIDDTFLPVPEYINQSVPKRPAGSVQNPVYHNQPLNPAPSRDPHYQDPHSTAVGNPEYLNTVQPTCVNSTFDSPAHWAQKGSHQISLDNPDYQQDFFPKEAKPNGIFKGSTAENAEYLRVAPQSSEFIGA
Chain of Epidermal growth factor receptor (Homo sapiens), P00533 [UNDEFINED MUTATION] (P00533 whole entry, looked up, change not shown): as the sequence (P00533 whole entry) above

As for `C=CC(=O)Nc1cccc(C(=O)Nc2ccc(Nc3cc(-c4[nH]c(SC)nc4C)ccn3)cc2)c1`, the % of control in assay [1] (at 1 µM) was 98%; in assay [1] (at 5 µM), 89%.

As for `Cc1cc([C@@H](C)Nc2ccccc2C(=O)O)c2nc(N3CCOCC3)cc(=O)n2c1` [AZD-6482], in assay [2], the % of control was 100%.

In turn, `CCN(CC)CCCCNc1ncc2cc(-c3cc(OC)cc(OC)c3)c(NC(=O)NC(C)(C)C)nc2n1` yielded a % of control in assay [3] of 100%.

In turn, `CCC(=O)N1CCN(c2ccc(-n3c(=O)ccc4cnc5ccc(-c6cnc7ccccc7c6)cc5c43)cc2C(F)(F)F)CC1` gave a % of control in assay [4] of 100%.

For the compound `Cc1cc(F)c(C(=O)Nc2cccc(-c3nncn3C(C)C)n2)cc1-n1cnc(C2CC2)c1`, the % of control in [5] was determined as 100%.

As to `CC[C@@H]1[C@H](F)C(=O)N[C@@H]1COc1nccc2cc(C(N)=O)c(OC)cc12` [ZIMLOVISERTIB], in [6], the % of inhibition amounted to 8.3%.

Take `COc1cc(N(C)c2ccnc3ccc(C(F)(F)F)cc23)cc(OC)c1OC`: the % binding in [7] turned out to be 89%; in [8], 83%.

In turn, `CN1Cc2nccc(-c3cn(C)nc3-c3ccc(F)cc3)c2C1=O` registered a % of inhibition in assay [9] of 8%.
